pIC50: −log10 of the molar value. Where a name gives a salt, the structure may show the parent alone. Read-outs that look alike come from different tables or passages of the source.
Biological target: T1, IKK2 (Homo sapiens, UniProt O14920)
T1 construct: made in house; host or cells: insect cells (baculovirus, pFastBac; SF9)
T1 sequence (O14920 1-756): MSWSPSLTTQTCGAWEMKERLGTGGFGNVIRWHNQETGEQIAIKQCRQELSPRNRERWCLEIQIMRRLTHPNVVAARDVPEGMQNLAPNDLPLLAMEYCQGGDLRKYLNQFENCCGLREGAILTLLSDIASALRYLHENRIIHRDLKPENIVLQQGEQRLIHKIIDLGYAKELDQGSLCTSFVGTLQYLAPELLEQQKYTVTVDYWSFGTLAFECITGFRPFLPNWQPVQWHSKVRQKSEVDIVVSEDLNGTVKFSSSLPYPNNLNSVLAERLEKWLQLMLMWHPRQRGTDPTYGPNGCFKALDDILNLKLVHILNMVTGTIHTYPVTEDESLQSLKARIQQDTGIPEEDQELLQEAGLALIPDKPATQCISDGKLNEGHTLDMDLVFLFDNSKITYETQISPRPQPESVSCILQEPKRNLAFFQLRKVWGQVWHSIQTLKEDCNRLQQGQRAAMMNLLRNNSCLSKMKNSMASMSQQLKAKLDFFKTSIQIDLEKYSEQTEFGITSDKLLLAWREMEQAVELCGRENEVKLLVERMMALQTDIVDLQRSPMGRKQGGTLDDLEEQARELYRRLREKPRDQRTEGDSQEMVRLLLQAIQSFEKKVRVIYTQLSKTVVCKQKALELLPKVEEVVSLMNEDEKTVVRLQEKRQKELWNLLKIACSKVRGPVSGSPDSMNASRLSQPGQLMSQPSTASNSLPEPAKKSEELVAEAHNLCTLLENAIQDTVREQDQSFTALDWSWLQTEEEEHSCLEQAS
Assay: IKKβ Resin Enzyme Assay (IKK2 resin)
Assay type: biochemical
Procedure, shortened: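 Enzyme: human IKK2 with a C-terminal FLAG tag, baculovirus-expressed, purified as homodimer on anti-FLAG resin. It phosphorylates a biotinylated IκBα peptide with 1 μM ATP plus [γ-33P]ATP in 25 mM Hepes pH 7.6, Mg/Mn, for 30 min at 25° C. Incorporation is counted by scintillation after anion-exchange resin stop.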

[1] = Table 4, read-out: IKK2 Resin IC50
[2] = Table 10, read-out: IKK2 Resin IC50
[3] = Table 2, read-out: IKK Resin IC50
[4] = Table 6, read-out: IKK2 Resin IC 50
[5] = Table 19, read-out: IKK2 Resin IC50

In the case of `NC(=O)c1nn(-c2ccc(OCCN3CCOCC3)cc2)c2c1CCc1ccc(NC(=O)c3ccccc3Cl)cc1-2` [Example 264, 8-[(2-chlorobenzoyl)amino]-1-[4-(2-morpholin-4-ylethoxy)phenyl]-4,5-dihydro-1H-benzo[g]indazole-3-carboxamide], the pIC50 (Table 9, read-out: IKK2 Resin IC50) was ≥ 6.00.

In the case of `CC(=O)Nc1ccc(-n2nc(C(N)=O)c3c2-c2cc(NC(=O)c4ccccc4Cl)ccc2CC3)cc1` [Example 371, 1-[4-(acetylamino)phenyl]-8-[(2-chlorobenzoyl)amino]-4,5-dihydro-1H-benzo[g]indazole-3-carboxamide], the pIC50 (Table 15, read-out: IKK2 Resin IC50) was ≥ 6.00.

With `NC(=O)c1nn(-c2ccc3c(c2)OCO3)c2c1CCc1ccc(NC(=O)c3cccc(N)c3Cl)cc1-2` [Example 171, 8-[(3-amino-2-chlorobenzoyl)amino]-1-(1,3-benzodioxol-5-yl)-4,5-dihydro-1H-benzo[g]indazole-3-carboxamidehydrochloride] the pIC50 [1] was ≥ 6.00.

`NC(=O)c1nn(-c2cccc(O)c2)c2c1CCc1ccc(NC(=O)c3ccncc3Cl)cc1-2` [Example 281, 8-[(3-chloroisonicotnoyl)amino]-1-(3-hydroxyphenyl)-4,5-dihydro-1H-benzo[g]indazole-3-carboxamide] was tested, and the pIC50 [2] was ≥ 6.00.

`CS(=O)(=O)c1ccc(-n2nc(C(N)=O)c3c2-c2cc(NC(=O)c4cccc(Cl)c4Cl)ccc2CC3)cc1` [Example 96, 8-[(2,3-dichlorobenzoyl)amino]-1-[4-(methylsulfonyl)phenyl]-4,5-dihydro-1H-benzo[g]indazole-3-carboxamide] was tested, and the pIC50 [3] was ≥ 6.00.

With `CS(=O)(=O)c1ccc(-n2nc(C(N)=O)c3c2-c2cc(NC(=O)c4ccccc4[N+](=O)[O-])ccc2CC3)cc1` [Example 102, 1-[4-(methylsulfonyl)phenyl]-8-[(2-nitrobenzoyl)amino]-4,5-dihydro-1H-benzo[g]indazole-3-carboxamide] the pIC50 [3] was ≥ 6.00.

For `NC(=O)c1nn(-c2cccc(O)c2)c2c1CCc1ccc(NC(=O)c3ccccc3Cl)cc1-2` [Example 262, 8-[(2-chlorobenzoyl)amino]-1-(3-hydroxyphenyl)-4,5-dihydro-1H-benzo[g]indazole-3-carboxamide], the pIC50 (Table 8, read-out: IKK2 Resin IC50) was ≥ 6.00.

`NCCCS(=O)(=O)c1ccc(-n2nc(C(N)=O)c3c2-c2cc(NC(=O)c4ccccc4Cl)ccc2CC3)cc1` [Example 404, 1-{4-[(3-aminopropyl)sulfonyl]phenyl}-8-[(2-chlorobenzoyl)amino]-4,5-dihydro-1H-benzo[g]indazole-3-carboxamide hydrochloride] was tested, and the pIC50 (Table 18, read-out: IKK2 Resin IC50) was ≥ 6.00.

With `Cc1ccccc1C(=O)Nc1ccc2c(c1)-c1c(c(C(N)=O)nn1-c1ccc(F)cc1)CC2` [Example 240, 1-(4-fluorophenyl)-8-[(2-methylbenzoyl)amino]-4,5-benzo[g]indazole-3-dihydro-1H-carboxamide] the pIC50 [4] was ≥ 6.00.

In the case of `Cc1ccc(C(=O)Nc2ccc3c(c2)-c2c(c(C(N)=O)nn2-c2ccc4c(c2)OCO4)CC3)c(Cl)n1` [Example 167, 1-(1,3-benzodioxol-5-yl)-8-{[(2-chloro-6-methylpyridin-3-yl)carbonyl]amino}-4,5-dihydro-1H-benzo[g]indazole-3-carboxamide], the pIC50 [1] was ≥ 6.00.

For `NC(=O)c1nn(-c2ccc(F)cc2)c2c1CCc1ccc(NC(=O)c3cccc([N+](=O)[O-])c3Cl)cc1-2` [Example 241, 8-[(2-chloro-3-nitrobenzoyl)amino]-1-(4-fluorophenyl)-4,5-dihydro-1H-benzo[g]indazole-3-carboxamide], the pIC50 [4] was ≥ 6.00.

`CNC(=O)/C=C/c1ccc(-n2nc(C(N)=O)c3c2-c2cc(NC(=O)c4ccccc4Cl)ccc2CC3)cc1` [Example 311, 8-[(2-chlorobenzoyl)amino]-1-{4-[(1E)-3-(methylamino)-3-oxoprop-1-enyl]phenyl}-4,5-dihydro-1H-benzo[g]indazole-3-carboxamide] was tested, and the pIC50 (Table 12, read-out: IKK2 Resin IC50) was ≥ 6.00.

In the case of `CS(=O)(=O)c1ccc(-n2nc(C(N)=O)c3c2-c2cc(NC(=O)c4cc([N+](=O)[O-])ccc4Cl)ccc2CC3)cc1` [Example 111, 8-[(2-chloro-5-nitrobenzoyl)amino]-1-[4-(methylsulfonyl)phenyl]-4,5-dihydro-1H-benzo[g]indazole-3-carboxamide], the pIC50 [3] was ≥ 6.00.

With `CSc1ccc(-n2nc(C(N)=O)c3c2-c2cc(NS(C)(=O)=O)ccc2CC3)cc1` [Example 411, 8-[(methylsulfonyl)amino]-1-[4-(methylthio)phenyl]-4,5-dihydro-1H-benzo[g]indazole-3-carboxamide] the pIC50 [5] was ≥ 6.00.

In the case of `CC(=O)CCc1ccc(-n2nc(C(N)=O)c3c2-c2cc(NC(=O)c4ccccc4Cl)ccc2CC3)cc1` [Example 296, 8-[(2-chlorobenzoyl)amino]-1-[4-(3-oxobutyl)phenyl]-4,5-dihydro-1H-benzo[g]indazole-3-carboxamide], the pIC50 (Table 11, read-out: IKK2 Resin IC50) was ≥ 6.00.

For `NC(=O)c1nn(-c2cccs2)c2c1CCc1ccc(NC(=O)c3ccncc3Cl)cc1-2` [Example 382, 8-[(3-chloroisonicotinoyl)amino]-1-thien-2-yl-4,5-dihydro-1H-benzo[g]indazole-3-carboxamide], the pIC50 (Table for Examples 381-385 (headed TABLE 14), read-out: IKK2 Resin IC50) was ≥ 6.00.

In the case of `CS(=O)(=O)c1ccc(-n2nc(C(N)=O)c3c2-c2cc(NC(=O)c4cccc(F)c4F)ccc2CC3)cc1` [Example 101, 8-[(2,3-difluorobenzoyl)amino]-1-[4-(methylsulfonyl)phenyl]-4,5-dihydro-1H-benzo[g]mdazole-3-carboxamide], the pIC50 [3] was ≥ 6.00.

In the case of `NC(=O)c1nn(-c2ccc3c(c2)OCO3)c2c1CCc1ccc(NC(=O)c3ccc(N)cc3Cl)cc1-2` [Example 180, 8-[(4-amino-2-chlorobenzoyl)amino]-1-(1,3-benzodioxol-5-yl)-4,5-dihydro-1H-benzo[g]indazole-3-carboxamide], the pIC50 [1] was ≥ 6.00.

With `CS(=O)(=O)c1ccc(-n2nc(C(N)=O)c3c2-c2cc(NC(=O)c4cc(N=[N+]=[N-])ccc4[N+](=O)[O-])ccc2CC3)cc1` [Example 121, 8-[(5-azido-2-nitrobenzoyl)amino]-1-[4-(methylsulfonyl)phenyl]-4,5-dihydro-1H-benzo[g]indazole-3-carboxamide] the pIC50 [3] was ≥ 6.00.

With `NC(=O)c1nn(-c2ccc3c(c2)OCO3)c2c1CCc1ccc(NC(=O)c3cccc(Cl)c3Cl)cc1-2` [Example 194, 1-(1,3-benzodioxol-5-yl)-8-[(2,3-dichlorobenzoyl)amino]-4,5-dihydro-1H-benzo[g]indazole-3-carboxamide] the pIC50 [1] was ≥ 6.00.

With `CSc1ccc(-n2nc(C(N)=O)c3c2-c2cc(NC(=O)c4cc(N)ccc4Cl)ccc2CC3)cc1` [Example 414, 8-[(5-amino-2-chlorobenzoyl)amino]-1-[4-(methylthio)phenyl]-4,5-dihydro-1H-benzo[g]indazole-3-carboxamide hydrochloride] the pIC50 [5] was ≥ 6.00.

`CS(=O)(=O)c1ccc(C(=O)Nc2ccc3c(c2)-c2c(c(C(N)=O)nn2-c2ccc4c(c2)OCO4)CC3)c(Cl)c1` [Example 163, 1-(1,3-benzodioxol-5-yl)-8-{[2-chloro-4-(methylsulfonyl)benzoyl]amino}-4,5-dihydro-1H-benzo[g]indazole-3-carboxamide] was tested, and the pIC50 [1] was ≥ 6.00.

In the case of `NC(=O)c1nn(-c2ccccc2)c2c1CCc1ccc(NC(=O)c3ccncc3Cl)cc1-2` [Example 331, 8-[(3-chloroisonicotinoyl)amino]-1-phenyl-4,5-dihydro-1H-benzo[g]indazole-3-carboxamide], the pIC50 (Table 14, read-out: IKK2 Resin IC50) was ≥ 6.00.

For `CS(=O)(=O)c1ccc(-n2nc(C(N)=O)c3c2-c2cc(NC(=O)c4ccc(Cl)cc4[N+](=O)[O-])ccc2CC3)cc1` [Example 132, 8-[(4-chloro-2-nitrobenzoyl)amino]-1-[4-(methylsulfonyl)phenyl]-4,5-dihydro-1H-benzo[g]indazole-3-carboxamide], the pIC50 (Table 3, read-out: IKK Resin IC50) was ≥ 6.00.

`COc1ccc(C(=O)Nc2ccc3c(c2)-c2c(c(C(N)=O)nn2-c2cccc(O)c2)CC3)c(Cl)c1OC` [Example 286, 8-[(2-chloro-3,4-dimethoxybenzoyl)amino]-1-(3-hydroxyphenyl)-4,5-dihydro-1H-benzo[g]indazole-3-carboxamide] was tested, and the pIC50 [2] was ≥ 6.00.

In the case of `COc1cc(Cl)c(C(=O)Nc2ccc3c(c2)-c2c(c(C(N)=O)nn2-c2ccc4c(c2)OCO4)CC3)cc1OC` [Example 174, 1-(1,3-benzodioxol-5-yl)-8-[(2-chloro-4,5-dimethoxybenzoyl)amino]-4,5-dihydro-1H-benzo[g]indazole-3-carboxamide], the pIC50 [1] was ≥ 6.00.

Source: patent publication US7186743B2, “Substituted pyrazolyl compounds for the treatment of inflammation” (Pharmacia Corporation, priority 2001, dated 2007)
